Source: patent US9023789B2, “Amylin analogs and pharmaceutical compositions thereof” (Novo Nordisk A/S, priority 2012, dated 2015)
Converted amounts (≈) assume the structure as drawn. Where two headings read alike, the source gives them in different places. Blank lines part the entries; values can stand above or below the compound they belong to. Numbered stars: 1 amine (or outer) side, 2 acyl side, 3 side chain; on linkers, the order of the positions; unused ones are H or OH. Bridge positions count the residues as written; N and C are the ends. Side chains are listed from the residue outwards. Peptide text beside a SMILES is read from it. * marks the point of attachment. C20 diacid = O=C(O)CCCCCCCCCCCCCCCCCCC(=O)*; γGlu = O=C(O)[C@H](CCC(=O)[*:2])N[*:1]

Key:
[1] = target: T1, human amylin 3(a) receptor (human calcitonin receptor + RAMP-3) in BHK570 cells (Homo sapiens, UniProt O60896+P30988); test: ASSAY (II)a functional assay, human amylin receptor (CRE luciferase); assay type: cell-based; conditions: for EC50: human amylin receptor functional potency, assay (II), read-out: hAmylin-R funct. EC50
T1 construct: expressed in transfected cells
Procedure, shortened: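 Receptor activation is measured as cAMP-driven CRE-luciferase expression in BHK cells expressing the calcitonin receptor, with RAMP-3 co-expressed to form the amylin 3(a) receptor. Cells are exposed to compound for 3 hours at 37° C, and luciferase is then quantified by luminescence.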

[2] = target: T2, rat amylin receptor (rat calcitonin receptor + rat RAMP 3) (Rattus norvegicus, UniProt P32214+Q9JJ73); test: ASSAY (VI) binding to the rat amylin receptor; conditions: for IC50: binding to rat amylin receptor, read-out: rAmylin-R bind IC50
T2 construct: expressed in transfected cells; host or cells: BHK tk'ts 13 (transient, FuGENE 6), membranes
T2 sequence (P32214 25-479 isoform P32214-2 limits assumed): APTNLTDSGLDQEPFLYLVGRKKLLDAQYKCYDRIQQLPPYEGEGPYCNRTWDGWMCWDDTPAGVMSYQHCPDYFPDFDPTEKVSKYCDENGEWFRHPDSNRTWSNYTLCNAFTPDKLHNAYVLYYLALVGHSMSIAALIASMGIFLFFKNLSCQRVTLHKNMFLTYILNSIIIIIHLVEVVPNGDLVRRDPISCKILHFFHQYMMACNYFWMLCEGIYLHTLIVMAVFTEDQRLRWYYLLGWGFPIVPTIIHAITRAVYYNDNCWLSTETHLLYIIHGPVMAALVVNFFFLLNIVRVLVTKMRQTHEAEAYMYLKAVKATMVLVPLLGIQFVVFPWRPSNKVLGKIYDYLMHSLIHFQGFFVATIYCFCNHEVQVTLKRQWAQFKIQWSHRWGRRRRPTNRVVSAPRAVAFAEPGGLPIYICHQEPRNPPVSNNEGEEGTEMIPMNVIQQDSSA
T2 sequence (Q9JJ73 23-147 partner): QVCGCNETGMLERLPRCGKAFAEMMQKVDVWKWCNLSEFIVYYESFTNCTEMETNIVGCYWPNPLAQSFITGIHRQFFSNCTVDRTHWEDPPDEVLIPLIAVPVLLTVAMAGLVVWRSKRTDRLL
Description: Assay (VI)—Determination of the Binding to the Rat Amylin Receptor […] The BHK tk′ts 13 cells were transiently transfected with rat calcitonin receptor using FuGENE® 6 (Roche), according to the manufacturer's recommendations. […] Approximately 48 hours after transfection, the cells were harvested and membranes were prepared.

[3] = target: T3, human amylin receptor (membranes from Amylin 3(a)/CRE-luc cells) (Homo sapiens, UniProt O60896+P30988); test: ASSAY (V) binding to the human amylin receptor (SPA, 125I-rat amylin);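 further: competition binding of cell membranes (35 ng/µL) mixed with SPA beads in 384-well plates at 40 µL total volume, read by scintillation counting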
T3 construct: expressed in transfected cells
T3 sequence (P30988 25-474): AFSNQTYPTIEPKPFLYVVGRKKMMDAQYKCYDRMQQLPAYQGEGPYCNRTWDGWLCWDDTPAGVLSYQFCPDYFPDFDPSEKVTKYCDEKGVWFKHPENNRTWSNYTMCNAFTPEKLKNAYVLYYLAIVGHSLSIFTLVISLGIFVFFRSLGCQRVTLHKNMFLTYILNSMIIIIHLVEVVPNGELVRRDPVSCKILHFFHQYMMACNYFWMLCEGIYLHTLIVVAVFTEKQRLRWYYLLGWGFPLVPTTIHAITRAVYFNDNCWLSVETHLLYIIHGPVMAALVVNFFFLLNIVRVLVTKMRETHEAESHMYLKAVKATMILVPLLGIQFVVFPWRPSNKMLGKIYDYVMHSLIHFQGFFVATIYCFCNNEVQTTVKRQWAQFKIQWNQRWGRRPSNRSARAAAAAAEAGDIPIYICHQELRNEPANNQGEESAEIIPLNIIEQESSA
T3 sequence (O60896 24-148 partner): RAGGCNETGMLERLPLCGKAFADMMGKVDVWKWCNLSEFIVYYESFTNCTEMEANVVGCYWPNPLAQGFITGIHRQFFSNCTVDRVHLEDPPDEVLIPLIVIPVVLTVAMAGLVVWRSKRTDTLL

[4] = target: T4, human calcitonin (a) receptor in BHK570 cells (Homo sapiens, UniProt P30988); test: ASSAY (II)a functional assay, human calcitonin receptor (CRE luciferase); assay type: cell-based; conditions: read-out: hCTR funct. EC50
T4 construct: expressed in transfected cells
T4 sequence (P30988 25-474): T3 sequence (P30988 25-474)
Excerpt: 1. Luciferase Assay Outline
Activation of calcitonin and amylin (coexpression of calcitonin receptor and receptor activity modifying proteins (RAMP)) receptors lead to increased intracellular concentrations of cAMP. Consequently, transcription is activated by promoters containing multiple copies of the cAMP response element (CRE). It is thus possible to measure amylin activity by the use of a CRE luciferase reporter gene introduced into BHK cells also expressing calcitonin or amylin receptors.
2. Construction of Calcitonin (a)- and Amylin 3(a)-Receptor/CRE-Luc Cell Line.
The cell line was further transfected with RAMP-3, using standard methods. This turns the calcitonin receptor into an amylin 3(a) receptor. Methotrexate, Neomycin, and Hygromycin are selection markers for luciferase, the calcitonin receptor, and RAMP-3, respectively.
To perform activity assays, BHK calcitonin (a) receptor- or amylin 3(a)-receptor/CRE-luc cells were seeded in white 96 well culture plates at a density of about 20.000 cells/well. […] After incubation overnight at 37° C. and 5% CO2, the growth medium was replaced by 50 μl/well assay medium (DMEM (without phenol red), Glutamax™, 10% FBS, and 10 mM Hepes, pH 7.4). Further, 50 μl/well of standard or sample in assay buffer were added. After 3 hours incubation at 37° C. and 5% CO2, the assay medium with standard or sample were removed and replaced by 100 μl/well PBS. Further, 100 μl/well LucLite™ was added. The plates were sealed and incubated at room temperature for 30 minutes. Finally, luminescence was measured on a TopCounter (Packard) in SPC (single photon counting) mode.

[5] = target: T5, human calcitonin receptor (Homo sapiens, UniProt P30988); test: ASSAY (VII) binding to the human calcitonin receptor (SPA, 125I-Calcitonin); conditions: read-out: hCTR bind IC50;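 further: cell membranes (35 ng/µL) combined with SPA beads in 40 µL of pH 7.4 Hepes buffer, 384-well format, signal counted on a TopCounter instrument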
T5 construct: expressed in transfected cells
T5 sequence (P30988 25-474): T3 sequence (P30988 25-474)

[6] = ASSAY (IV) determination of solubility; assay type: physicochemical
Description: Assay (IV)—Determination of Solubility
The polypeptide was dissolved in water at −500 nmol/ml and mixed 1:1 with a series of buffers (100 mM glycylglycine pH 3.0, 100 mM glycylglycine pH 4.0, 100 mM glycylglycine pH 5.0, 100 mM bistrispropane pH 6.0, 100 mM bistrispropane pH 6.5, 100 mM bistrispropane pH 7.0, 100 mM bistrispropane pH 7.5, 100 mM bistrispropane pH 8.0). After 18 hours at room temperature the samples were centrifuged and the polypeptide concentration determined by UPLC.

rat calcitonin receptor = target: T6, rat calcitonin receptor (Rattus norvegicus, UniProt P32214); test: ASSAY (VIII) binding to the rat calcitonin receptor; conditions: Table 7, read-out: rCTR bind IC50
T6 construct: expressed in transfected cells; host or cells: BHK tk'ts 13 (transient, FuGENE 6), membranes
T6 sequence (P32214 25-479 isoform P32214-2 limits assumed): T2 sequence (P32214 25-479 isoform P32214-2 limits assumed)
Description: Assay (VIII)—Determination of Binding to the Rat Calcitonin Receptor
The BHK tk′ts 13 cells were transiently transfected with rat calcitonin receptor using FuGENE® 6 (Roche), according to the manufacturer's recommendations. Cells were grown in DMEM with 10% FBS and 1% Pen/Strep. Approximately 48 hours after transfection, the cells were harvested and membranes were prepared.

[7] = human functional selectivity: hCTR funct. EC50 / hAmylin-R funct. EC50
[8] = Table 7, rat binding selectivity, rCTR IC50 / rAmylin-R IC50
[9] = Table 5, selectivity, hCTR bind IC50 / hAmylin-R bind IC50
[10] = Table 7, human binding selectivity, included for comparison

SMILES: CC[C@H](C)[C@H](NC(=O)[C@@H]1CCCN1C(=O)CNC(=O)[C@H](Cc1ccccc1)NC(=O)[C@H](CC(N)=O)NC(=O)[C@@H]1CCCN1C(=O)[C@H](CO)NC(=O)[C@H](CO)NC(=O)[C@H](Cc1c[nH]cn1)NC(=O)[C@H](CCCNC(=N)N)NC(=O)[C@H](CC(C)C)NC(=O)[C@H](Cc1ccccc1)NC(=O)[C@H](CCC(=O)O)NC(=O)[C@H](C)NC(=O)[C@H](CC(C)C)NC(=O)[C@H](CCCNC(=N)N)NC(=O)[C@H](CCC(N)=O)NC(=O)[C@@H](NC(=O)[C@H](C)NC(=O)[C@@H]1CSSC[C@H](NC(=O)[C@H](CCCCN)NC(=O)CC[C@H](NC(=O)CCCCCCCCCCCCCCCCCCC(=O)O)C(=O)O)C(=O)N[C@@H](CC(N)=O)C(=O)N[C@@H]([C@@H](C)O)C(=O)N[C@@H](C)C(=O)N[C@@H]([C@@H](C)O)C(=O)N1)[C@@H](C)O)C(=O)N[C@@H](CC(C)C)C(=O)N1CCC[C@H]1C(=O)N1CCC[C@H]1C(=O)N[C@H](C(=O)N[C@@H](CC(N)=O)C(=O)N[C@H](C(=O)NCC(=O)N[C@@H](CO)C(=O)N[C@@H](CC(N)=O)C(=O)N[C@H](C(=O)N1CCC[C@H]1C(N)=O)[C@@H](C)O)C(C)C)[C@@H](C)O [Example 4] ({C20 diacid-γGlu}-KCNTATCATQRLAEFLRHSSPNFGPILPPTNVGSNTP-NH2; disulfide 2-7)
- Ratio hCT/hAmylin funct. ([1]; hCTR funct. EC50 / hAmylin-R funct. EC50): 1.2
- Ratio hCT/hAmylin funct. ([1]; hCTR funct. EC50 over hAmylin-R funct. EC50): 1.2
- EC50 [1]: 60 pM
- Ratio hCT/hAmylin funct. [1, 7]: 1.2
- IC50 ([2]; Table 7): 1300 pM
- Ratio rCT/rAmylin binding [2, 8]: 3.1
- IC50 ([3]; Table 4, read-out: hAmylin-R bind IC50): 321 pM
- Ratio hCT/hAmylin binding [3, 9]: 2.1
- Ratio hCT/hAmylin binding [3, 10]: 2.1
- EC50 [4]: 70 pM
- IC50 [5]: 688 pM

- EC50 [1]: 205 pM
- Ratio hCT/hAmylin funct. [1, 7]: 6.7
- IC50 ([2]; Table 7): 1000 pM
- Ratio rCT/rAmylin binding [2, 8]: 16.7
- Ratio rCT/rAmylin binding ([2]; Table 7a (preferred compounds), rat binding selectivity, rCTR IC50 / rAmylin-R IC50): 16.7
- Ratio rCT/rAmylin binding ([2]; ratio of rCTR bind IC50 to rAmylin-R bind IC50): 16.7
- Ratio hCT/hAmylin binding [3, 9]: 17.3
- Ratio hCT/hAmylin binding ([3]; Table 5a, selectivity, hCTR bind IC50 / hAmylin-R bind IC50): 17.3
- Ratio hCT/hAmylin binding ([3]; Table 5b, selectivity, hCTR bind IC50 / hAmylin-R bind IC50): 17.3
- Ratio hCT/hAmylin binding [3, 10]: 17.3
- Ratio hCT/hAmylin binding ([3]; Table 7a (preferred compounds), human binding selectivity, included for comparison): 17.3
- Ratio hCT/hAmylin binding ([3]; ratio of human calcitonin receptor binding IC50 to human amylin receptor binding IC50): 17.3
- EC50 [4]: 1380 pM
- solubility at 18 h ([6]; bistrispropane buffer, pH 6.5, read-out: Solubility pH 6.5 Concentration): ≥ 200 µM
- solubility at 18 h ([6]; bistrispropane buffer, pH 7.5, read-out: Solubility pH 7.5 Concentration): ≥ 200 µM
- solubility at 18 h ([6]; bistrispropane buffer, pH 6.0, read-out: Solubility pH 6.0 Concentration): 189 µM (≈ 853 µg/mL)
- solubility at 18 h ([6]; bistrispropane buffer, pH 7.0, read-out: Solubility pH 7.0 Concentration): 195 µM (≈ 880 µg/mL)
- solubility at 18 h ([6]; bistrispropane buffer, pH 8.0, read-out: Solubility pH 8.0 Concentration): ≥ 200 µM
- solubility at 18 h ([6]; glycylglycine buffer, pH 3.0, read-out: Solubility pH 3.0 Concentration): ≥ 200 µM
- solubility at 18 h ([6]; glycylglycine buffer, pH 4.0, read-out: Solubility pH 4.0 Concentration): 96 µM (≈ 433 µg/mL)
- solubility at 18 h ([6]; glycylglycine buffer, pH 5.0, read-out: Solubility pH 5.0 Concentration): 141 µM (≈ 636 µg/mL)
- IC50 (rat calcitonin receptor): 16700 pM
SMILES: CC(C)C[C@H](NC(=O)[C@H](CCCNC(=N)N)NC(=O)[C@H](CCC(N)=O)NC(=O)[C@@H](NC(=O)[C@H](C)NC(=O)[C@@H]1CSSC[C@H](NC(=O)[C@@H](N)CCCCNC(=O)CC[C@H](NC(=O)CC[C@H](NC(=O)CCCCCCCCCCCCCCCCCCC(=O)O)C(=O)O)C(=O)O)C(=O)N[C@@H](CC(N)=O)C(=O)N[C@@H]([C@@H](C)O)C(=O)N[C@@H](C)C(=O)N[C@@H]([C@@H](C)O)C(=O)N1)[C@@H](C)O)C(=O)N[C@@H](C)C(=O)N[C@@H](CC(=O)O)C(=O)N[C@@H](Cc1ccccc1)C(=O)N[C@@H](CC(C)C)C(=O)N[C@@H](CCCNC(=N)N)C(=O)N[C@@H](Cc1c[nH]cn1)C(=O)N[C@@H](CO)C(=O)N[C@@H](CO)C(=O)N[C@@H](CC(N)=O)C(=O)N1CCC[C@H]1C(=O)N[C@@H](Cc1ccccc1)C(=O)NCC(=O)N[C@@H](C)C(=O)N1CCC[C@H]1C(=O)N[C@@H](CC(C)C)C(=O)N[C@@H](CO)C(=O)N[C@@H](CO)C(=O)N[C@H](C(=O)N[C@@H](CC(N)=O)C(=O)N[C@H](C(=O)NCC(=O)N[C@@H](CO)C(=O)N[C@@H](CC(=O)O)C(=O)N[C@H](C(=O)N[C@@H](Cc1ccc(O)cc1)C(N)=O)[C@@H](C)O)C(C)C)[C@@H](C)O [Example 3] (H-K([γGlu-γGlu-C20 diacid])CNTATCATQRLADFLRHSSNPFGAPLSSTNVGSDTY-NH2; disulfide 2-7; N-terminus assumed)
